In ChEMBL document CHEMBL4325829, “Design and Synthesis of Tubulin and Histone Deacetylase Inhibitor Based on iso-Combretastatin A-4” (J Med Chem, 2018):
Active and inactive are the calls of the source. No cut-off for these calls is given here.

What was measured:
Tubulin (Homo sapiens) [1] = target: T1, Tubulin (Homo sapiens) (UniProt P68371+Q9H4B7+P0DPH7+P68366+Q13509+Q71U36+P04350+Q3ZCM7+P07437+P68363+Q9BQE3+Q6PEY2+Q13885+Q9BVA1+Q9BUF5); assay: Inhibition of tubulin polymerization in human K562 cells assessed as shrinkage of microtubule spindles at 10 nM after 24 hrs by DAPI-staining based inverted microscopy; format: cell-based
K-562R = assay: Potency index, ratio of IC50 for isoCA4 to IC50 for test compound for antiproliferative activity against human K562R cells after 72 hrs by MTS assay; format: functional
[2] = target: T2, Histone deacetylase (Homo sapiens) (UniProt Q13547+O15379+Q9UBN7+Q92769+Q9UQL6+Q8WUI4+Q9BY41+Q96DB2+P56524+Q9UKV0+Q969S8); assay: Inhibition of HDAC in human HT-29 cells assessed as phosphorylated gamma-H2AX levels at 80 nM after 3 days by Western blot analysis relative to control; format: cell-based
Tubulin (Homo sapiens) [3] = target: T1, Tubulin (Homo sapiens); assay: Inhibition of tubulin polymerization in human K562 cells assessed as disruption of spindle formation at 1 nM after 24 hrs by DAPI-staining based inverted microscopy; format: cell-based
HT-29 [4] = assay: Potency index, ratio of IC50 for TSA to IC50 for test compound for antiproliferative activity against human HT-29 cells after 72 hrs by MTS assay; format: functional
Tubulin (Homo sapiens) [5] = target: T1, Tubulin (Homo sapiens); assay: Inhibition of tubulin polymerization in human K562 cells assessed as multinucleation at 10 nM after 24 hrs by DAPI-staining based inverted microscopy; format: cell-based
[6] = target: T3, Histone deacetylase 8 (Homo sapiens) (UniProt Q9BY41); assay: Inhibition of HDAC8 in human HT-29 cells assessed as acetylated SMC3 levels at 25 uM after 6 hrs by Western blot analysis relative to control; format: cell-based
T3 sequence (whole entry): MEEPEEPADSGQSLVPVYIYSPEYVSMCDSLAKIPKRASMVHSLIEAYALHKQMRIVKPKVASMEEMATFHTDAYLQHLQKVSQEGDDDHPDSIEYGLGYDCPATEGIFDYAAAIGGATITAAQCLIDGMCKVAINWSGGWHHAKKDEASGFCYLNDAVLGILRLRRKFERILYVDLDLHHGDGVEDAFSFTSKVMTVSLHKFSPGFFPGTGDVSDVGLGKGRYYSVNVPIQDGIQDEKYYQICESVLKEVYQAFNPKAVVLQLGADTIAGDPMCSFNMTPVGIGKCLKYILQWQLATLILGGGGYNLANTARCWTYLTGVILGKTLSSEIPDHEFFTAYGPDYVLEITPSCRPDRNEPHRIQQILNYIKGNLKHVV

[7] = target: T4, Protein deacetylase HDAC6 (Homo sapiens) (UniProt Q9UBN7); assay: Inhibition of HDAC6 in human HT-29 cells assessed as acetylated alpha-tubulin levels at 25 uM after 6 hrs by Western blot analysis relative to control; format: cell-based
T4 sequence (whole entry): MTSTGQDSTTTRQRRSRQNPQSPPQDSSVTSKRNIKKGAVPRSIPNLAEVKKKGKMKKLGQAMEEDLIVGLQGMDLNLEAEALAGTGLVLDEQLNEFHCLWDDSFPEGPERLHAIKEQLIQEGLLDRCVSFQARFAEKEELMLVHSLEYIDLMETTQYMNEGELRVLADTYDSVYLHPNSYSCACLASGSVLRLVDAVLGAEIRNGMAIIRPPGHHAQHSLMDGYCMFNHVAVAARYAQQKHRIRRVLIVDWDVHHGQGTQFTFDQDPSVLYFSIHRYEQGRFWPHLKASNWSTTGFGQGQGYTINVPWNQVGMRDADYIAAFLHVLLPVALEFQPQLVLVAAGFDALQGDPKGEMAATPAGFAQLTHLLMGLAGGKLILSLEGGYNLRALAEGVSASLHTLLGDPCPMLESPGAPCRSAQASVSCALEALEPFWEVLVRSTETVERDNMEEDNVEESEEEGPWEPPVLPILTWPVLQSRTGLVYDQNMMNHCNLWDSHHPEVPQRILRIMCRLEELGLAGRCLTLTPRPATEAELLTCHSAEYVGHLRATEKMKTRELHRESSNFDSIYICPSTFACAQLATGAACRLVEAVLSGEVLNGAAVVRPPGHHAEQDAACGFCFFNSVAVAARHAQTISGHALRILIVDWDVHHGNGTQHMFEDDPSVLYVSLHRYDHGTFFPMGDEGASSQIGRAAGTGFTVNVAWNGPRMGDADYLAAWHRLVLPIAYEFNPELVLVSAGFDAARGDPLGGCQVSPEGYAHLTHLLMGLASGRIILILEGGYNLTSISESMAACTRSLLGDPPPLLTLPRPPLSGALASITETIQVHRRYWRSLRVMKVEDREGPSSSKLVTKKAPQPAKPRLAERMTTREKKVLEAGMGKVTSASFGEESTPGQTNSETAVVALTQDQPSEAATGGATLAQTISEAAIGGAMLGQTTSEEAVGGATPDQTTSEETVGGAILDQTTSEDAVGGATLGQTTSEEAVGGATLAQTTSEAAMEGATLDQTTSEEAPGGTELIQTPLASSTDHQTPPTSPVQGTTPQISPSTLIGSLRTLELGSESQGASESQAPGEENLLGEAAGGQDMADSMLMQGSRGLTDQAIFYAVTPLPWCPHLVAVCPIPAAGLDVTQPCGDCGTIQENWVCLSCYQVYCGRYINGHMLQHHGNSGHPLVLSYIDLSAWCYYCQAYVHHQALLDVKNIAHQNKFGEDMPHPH

U-87 MG = assay: Potency index, ratio of IC50 for isoCA4 to IC50 for test compound for antiproliferative activity against human U87 cells after 72 hrs by MTS assay; format: functional, U-87MG ATCC
[8] = target: T2, Histone deacetylase (Homo sapiens); assay: Inhibition of HDAC in human HT-29 cells assessed as phosphorylated gamma-H2AX levels at 40 nM after 3 days by Western blot analysis relative to control; format: cell-based
[9] = target: T2, Histone deacetylase (Homo sapiens); assay: Inhibition of HDAC in human HT-29 cells assessed as gamma-H2AX phosphorylation after 3 days by Western blot analysis; format: cell-based
HT-29 [10] = assay: Potency index, ratio of IC50 for isoCA4 to IC50 for test compound for antiproliferative activity against human HT-29 cells after 72 hrs by MTS assay; format: functional
[11] = Antiproliferative activity against human BL2 cells after 72 hrs by MTS assay; format: functional, cell-based; settings: BL2, 72 h
HT-29 [12] = assay: Antiproliferative activity against human HT-29 cells in presence of TSA after 72 hrs by MTS assay relative to control; format: functional, cell-based; settings: HT-29, 72 h

## C=C(c1ccc(OC)c(/C=C/C(=O)NO)c1)c1cc(OC)c(OC)c(OC)c1
Tubulin (Homo sapiens) [1]
  Activity: Active
K-562R
  Ratio IC50: 2
[2]
  fold change (FC): 14.2
Tubulin (Homo sapiens) [3]
  Activity: Active
HT-29 [4]
  Ratio IC50: 17
Tubulin (Homo sapiens) [5]
  Activity: Active
[6]
  fold change (FC): 3.2
[7]
  fold change (FC): 0.4
U-87 MG
  Ratio IC50: 5
[8]
  fold change (FC): 3.2
[9]
  inhibition: Dose-dependent effect
HT-29 [10]
  Ratio IC50: 135
[11]
  IC50: 10 nM

## C=C(c1ccc(OC)c(O)c1)c1cc(OC)c(OC)c(OC)c1
HT-29 [12]
  IC50: 3.8 nM
